The source of these data is US10039759B2, “Quinolines as FGFR kinase modulators” (priority 2011, dated 2018).

Each structure is given as a SMILES string. Where a name gives a salt, the structure may show the parent alone.

The target of one series is FGFR3 (h) (Homo sapiens, UniProt P22607). Put plainly: FGFR3 (enzymatic assay), TR-FRET. Conditions: 25 μM ATP, 60 min; pIC50 = -log IC50 (M); average if tested multiple times; read-out: hFGFR 3 pIC50 (converted). It is filed as biochemical.
The target of series [1] is T1, Ba/F3-FGFR1-transfected cells (Homo sapiens, UniProt P11362, cells depend on it, form not given).
T1 construct: other: minus IL3; 24 hours, Alamar Blue
The series is described as follows: Ba/F3-FGFR1 (minus IL3 or plus IL3) cellular proliferation assay, Alamar Blue. The format is cell-based. Conditions: minus IL3, 24 hours. Here is the method:
Ba/F3-FGFR1 (Minus IL3 or Plus IL3) (Cellular Proliferation Assay)
(§1) In a 384 well plate, 100 nl of compound dilution in DMSO was sprayed before adding 50 μl cell culture medium (phenol red free RPMI-1640, 10% FBS, 2 mM L-Glutamine and 50 μg/ml Gentamycin) containing 20000 cells per well of Ba/F3-FGFR1-transfected cells. Cells were put in an incubator at 37° C. and 5% CO2. After 24 hours, 10 μl of Alamar Blue solution (0.5 mM K3Fe(CN)6, 0.5 mM K4Fe(CN)6, 0.15 mM Resazurin and 100 mM Phosphate Buffer) was added to the wells, incubated for 4 hours at 37° C. and 5% CO2 before RFU's (Relative Fluorescence Units) (ex. 540 nm., em. 590 nm.) were measured in a fluorescence plate reader.
(§2) In this assay, the inhibitory effect of different compound concentrations (range 10 μM to 0.1 nM) was determined and used to calculate an IC50 (M) and pIC50 (−log IC50) value. As a counterscreen the same experiment was performed in the presence of 10 ng/ml murine IL3.

The next series concerns the target KDR (h) (Homo sapiens, UniProt P35968). Put plainly: KDR (VEGFR2) (enzymatic assay), TR-FRET. It is filed as biochemical. Conditions: 3 μM ATP, 120 min; pIC50 = -log IC50 (M); average if tested multiple times; read-out: VEGFR KDR pIC50 (converted). As to the method:
KDR (VEGFR2) (Enzymatic Assay)
In a final reaction volume of 30 μL, KDR (h) (150 ng/ml) was incubated with 50 mM HEPES pH 7.5, 6 mM MnCl2, 1 mM DTT, 0.1 mM Na3VO4, 0.01% Triton-X-100, 500 nM Btn-Flt3 and 3 μM ATP in the presence of compound (1% DMSO final). After incubation for 120 minutes at room temperature the reaction was stopped with 2.27 nM EU-anti P-Tyr, 7 mM EDTA, 31.25 nM SA-XL-665 and 0.02% BSA which was present for 60 minutes at room temperature. Time-Resolved Fluorescence Resonance Energy Transfer (TR-FRET) signal (ex340 nm. Em 620 nm, em 655 nm) was measured afterwards and results are expressed in RFU (Relative Fluorescence Units). In this assay, the inhibitory effect of different compound concentrations (range 10 μM to 0.1 nM) was determined and used to calculate an IC50 (M) and pIC50 (−log IC50) value.

The target in series [2] is T2, Ba/F3-KDR-transfected cells (Homo sapiens, UniProt P35968, cells depend on it, form not given).
T2 construct: BAF3-KDR (MIN IL3 Alamar Blue pIC50); other: minus IL3; 24 hours, Alamar Blue
Put plainly: Ba/F3-KDR (minus IL3 or plus IL3) cellular proliferation assay, Alamar Blue. Conditions: minus IL3; 24 hours, Alamar Blue. The format is cell-based. Here is the method: (§3) Ba/F3-KDR (Minus IL3 or Plus IL3) (Cellular Proliferation Assay)
as §1, with “Ba/F3-KDR-transfected” for “Ba/F3-FGFR1-transfected”
as §2

The next series deals with FGFR2 (h) (Homo sapiens, UniProt P21802). Put plainly: FGFR2 (enzymatic assay), TR-FRET. The format is biochemical. Conditions: 0.4 μM ATP, 60 min; pIC50 = -log IC50 (M); average if tested multiple times; read-out: FGFR 2 pIC50 (converted).
The target of series [3] is Ba/F3-FGFR4-transfected cells (Homo sapiens, UniProt P22455). Put plainly: Ba/F3-FGFR4 cellular proliferation assay, Alamar Blue. It is filed as cell-based. Conditions: 24 hours. As to the method: Ba/F3-FGFR4 (Cellular Proliferation Assay)
as §1, with “Ba/F3-FGFR4-transfected” for “Ba/F3-FGFR1-transfected”
In this assay, the inhibitory effect of different compound concentrations (range 10 μM to 0.1 nM) was determined and used to calculate an IC50 (M) and pIC50 (−log IC50) value.

In series [4] the target is T3, Ba/F3-FGFR3-transfected cells (Homo sapiens, UniProt P22607, cells depend on it, form not given).
T3 construct: BAF3-FGFR3 (MIN IL3 Alamar Blue- pIC50); other: minus IL3; 24 hours, Alamar Blue
The series is described as follows: Ba/F3-FGFR3 (minus IL3 or plus IL3) cellular proliferation assay, Alamar Blue. Conditions: minus IL3; 24 hours, Alamar Blue. It is filed as cell-based. Here is the method:
(§4) Ba/F3-FGFR3 (Minus IL3 or Plus IL3) (Cellular Proliferation Assay)
as §1, with “Ba/F3-FGFR3-transfected” for “Ba/F3-FGFR1-transfected”
as §2

In series [5] the test system is Ba/F3-KDR-transfected cells. Put plainly: Ba/F3-KDR (minus IL3 or plus IL3) cellular proliferation assay, Alamar Blue. The format is cell-based. Conditions: plus IL3 (10 ng/ml murine IL3, counterscreen); 24 hours, Alamar Blue; read-out: BAF3-KDR (PLUS IL3 Alamar Blue pIC50) (converted). Here is the method: as §3
as §1, with “Ba/F3-KDR-transfected” for “Ba/F3-FGFR1-transfected”
as §2

For a further series, the target named is FGFR4 (h) (Homo sapiens, UniProt P22455). Put plainly: FGFR4 (enzymatic assay), TR-FRET. It is filed as biochemical. Conditions: FGFR 4 pIC50, 5 μM ATP, 60 min; pIC50 = -log IC50 (M); average if tested multiple times.
The test system of series [6] is Ba/F3-FGFR3-transfected cells. The series is described as follows: Ba/F3-FGFR3 (minus IL3 or plus IL3) cellular proliferation assay, Alamar Blue. Conditions: plus IL3 (10 ng/ml murine IL3, counterscreen); 24 hours, Alamar Blue; read-out: BAF3-FGFR3 (PLUS IL3 Alamar Blue pIC50) (converted). It is filed as cell-based. As to the method: as §4
as §1, with “Ba/F3-FGFR3-transfected” for “Ba/F3-FGFR1-transfected”
as §2

A further series has as its target FGFR1 (h) (Homo sapiens, UniProt P11362). Put plainly: FGFR1 (enzymatic assay), TR-FRET. Conditions: FGFR 1 pIC50, 5 μM ATP, 60 min; pIC50 = -log IC50 (M); average if tested multiple times. It is filed as biochemical.

Chain of KDR (h) (P35968 20-1356): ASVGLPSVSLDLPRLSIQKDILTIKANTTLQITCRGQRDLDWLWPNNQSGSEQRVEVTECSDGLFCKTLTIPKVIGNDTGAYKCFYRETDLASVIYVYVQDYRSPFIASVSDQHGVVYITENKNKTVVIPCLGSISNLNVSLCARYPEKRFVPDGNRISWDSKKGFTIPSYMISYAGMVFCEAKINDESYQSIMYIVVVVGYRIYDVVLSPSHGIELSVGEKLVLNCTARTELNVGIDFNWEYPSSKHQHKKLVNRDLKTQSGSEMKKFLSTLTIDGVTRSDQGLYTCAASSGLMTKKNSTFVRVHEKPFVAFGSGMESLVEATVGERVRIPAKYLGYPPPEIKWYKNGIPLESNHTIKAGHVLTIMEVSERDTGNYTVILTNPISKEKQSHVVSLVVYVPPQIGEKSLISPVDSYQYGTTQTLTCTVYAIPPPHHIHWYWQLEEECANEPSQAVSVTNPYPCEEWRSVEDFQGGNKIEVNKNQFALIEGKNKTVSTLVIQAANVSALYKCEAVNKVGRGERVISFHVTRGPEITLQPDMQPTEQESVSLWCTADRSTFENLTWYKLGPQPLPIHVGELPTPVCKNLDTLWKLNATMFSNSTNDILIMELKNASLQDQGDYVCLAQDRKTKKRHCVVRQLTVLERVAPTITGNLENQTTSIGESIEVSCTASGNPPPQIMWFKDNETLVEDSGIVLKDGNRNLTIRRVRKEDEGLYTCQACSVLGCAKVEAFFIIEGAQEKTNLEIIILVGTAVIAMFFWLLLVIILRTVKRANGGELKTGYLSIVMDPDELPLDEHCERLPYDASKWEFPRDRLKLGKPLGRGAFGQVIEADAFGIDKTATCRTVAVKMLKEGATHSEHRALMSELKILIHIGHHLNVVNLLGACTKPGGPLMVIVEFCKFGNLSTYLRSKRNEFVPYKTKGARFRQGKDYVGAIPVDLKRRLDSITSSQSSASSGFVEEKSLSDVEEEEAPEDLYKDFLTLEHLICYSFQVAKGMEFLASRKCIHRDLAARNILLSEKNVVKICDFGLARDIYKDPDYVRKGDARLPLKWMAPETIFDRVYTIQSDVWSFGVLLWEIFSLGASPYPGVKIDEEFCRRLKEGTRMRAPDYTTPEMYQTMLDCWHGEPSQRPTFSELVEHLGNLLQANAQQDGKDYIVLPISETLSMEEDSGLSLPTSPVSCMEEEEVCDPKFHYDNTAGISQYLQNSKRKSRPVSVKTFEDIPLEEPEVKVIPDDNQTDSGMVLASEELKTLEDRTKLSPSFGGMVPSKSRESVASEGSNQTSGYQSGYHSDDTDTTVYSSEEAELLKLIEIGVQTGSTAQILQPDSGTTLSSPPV
Chain of FGFR1 (h) (P11362 22-822): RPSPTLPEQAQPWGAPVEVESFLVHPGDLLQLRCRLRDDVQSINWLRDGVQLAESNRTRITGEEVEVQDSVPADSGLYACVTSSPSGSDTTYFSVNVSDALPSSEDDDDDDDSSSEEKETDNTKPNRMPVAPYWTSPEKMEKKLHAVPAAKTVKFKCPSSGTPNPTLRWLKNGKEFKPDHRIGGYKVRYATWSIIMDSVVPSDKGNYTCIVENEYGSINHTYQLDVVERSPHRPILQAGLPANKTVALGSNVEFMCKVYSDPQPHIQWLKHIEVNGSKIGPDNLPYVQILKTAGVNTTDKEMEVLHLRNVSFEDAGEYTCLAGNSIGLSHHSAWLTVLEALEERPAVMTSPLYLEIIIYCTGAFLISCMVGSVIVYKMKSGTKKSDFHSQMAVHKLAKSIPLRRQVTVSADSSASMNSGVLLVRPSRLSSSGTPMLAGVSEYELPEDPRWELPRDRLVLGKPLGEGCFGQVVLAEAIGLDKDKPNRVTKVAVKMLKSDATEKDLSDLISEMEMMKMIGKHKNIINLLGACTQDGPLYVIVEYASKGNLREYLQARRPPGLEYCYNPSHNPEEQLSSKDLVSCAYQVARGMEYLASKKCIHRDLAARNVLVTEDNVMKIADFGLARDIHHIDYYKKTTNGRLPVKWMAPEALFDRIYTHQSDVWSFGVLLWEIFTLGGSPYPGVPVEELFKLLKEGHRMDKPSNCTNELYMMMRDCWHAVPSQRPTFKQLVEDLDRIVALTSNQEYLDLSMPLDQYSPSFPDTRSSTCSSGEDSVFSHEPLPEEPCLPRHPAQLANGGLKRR
T3 sequence (P22607 whole entry, change not shown): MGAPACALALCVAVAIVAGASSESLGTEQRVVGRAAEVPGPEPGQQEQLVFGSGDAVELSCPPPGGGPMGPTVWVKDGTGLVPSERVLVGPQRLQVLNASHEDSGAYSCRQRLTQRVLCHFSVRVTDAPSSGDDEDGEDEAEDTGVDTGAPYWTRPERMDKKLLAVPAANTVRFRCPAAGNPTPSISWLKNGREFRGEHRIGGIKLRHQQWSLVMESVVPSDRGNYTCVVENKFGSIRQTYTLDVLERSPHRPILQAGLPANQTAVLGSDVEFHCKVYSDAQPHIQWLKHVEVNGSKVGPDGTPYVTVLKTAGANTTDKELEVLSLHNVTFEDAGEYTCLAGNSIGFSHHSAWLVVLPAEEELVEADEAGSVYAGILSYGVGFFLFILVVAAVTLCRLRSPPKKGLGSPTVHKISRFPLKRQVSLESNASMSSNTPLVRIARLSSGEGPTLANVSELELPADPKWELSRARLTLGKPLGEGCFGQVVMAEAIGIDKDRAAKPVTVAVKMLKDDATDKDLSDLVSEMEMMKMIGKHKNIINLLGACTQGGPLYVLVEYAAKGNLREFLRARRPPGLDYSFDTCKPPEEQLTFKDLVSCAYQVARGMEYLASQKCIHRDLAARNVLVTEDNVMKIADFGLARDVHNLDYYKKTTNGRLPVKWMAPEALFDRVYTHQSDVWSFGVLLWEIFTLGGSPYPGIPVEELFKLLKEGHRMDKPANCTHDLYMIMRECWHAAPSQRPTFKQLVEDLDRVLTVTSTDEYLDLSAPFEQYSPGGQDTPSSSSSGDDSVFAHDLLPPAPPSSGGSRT
Chain of Ba/F3-FGFR4-transfected cells (P22455 whole entry, change not shown): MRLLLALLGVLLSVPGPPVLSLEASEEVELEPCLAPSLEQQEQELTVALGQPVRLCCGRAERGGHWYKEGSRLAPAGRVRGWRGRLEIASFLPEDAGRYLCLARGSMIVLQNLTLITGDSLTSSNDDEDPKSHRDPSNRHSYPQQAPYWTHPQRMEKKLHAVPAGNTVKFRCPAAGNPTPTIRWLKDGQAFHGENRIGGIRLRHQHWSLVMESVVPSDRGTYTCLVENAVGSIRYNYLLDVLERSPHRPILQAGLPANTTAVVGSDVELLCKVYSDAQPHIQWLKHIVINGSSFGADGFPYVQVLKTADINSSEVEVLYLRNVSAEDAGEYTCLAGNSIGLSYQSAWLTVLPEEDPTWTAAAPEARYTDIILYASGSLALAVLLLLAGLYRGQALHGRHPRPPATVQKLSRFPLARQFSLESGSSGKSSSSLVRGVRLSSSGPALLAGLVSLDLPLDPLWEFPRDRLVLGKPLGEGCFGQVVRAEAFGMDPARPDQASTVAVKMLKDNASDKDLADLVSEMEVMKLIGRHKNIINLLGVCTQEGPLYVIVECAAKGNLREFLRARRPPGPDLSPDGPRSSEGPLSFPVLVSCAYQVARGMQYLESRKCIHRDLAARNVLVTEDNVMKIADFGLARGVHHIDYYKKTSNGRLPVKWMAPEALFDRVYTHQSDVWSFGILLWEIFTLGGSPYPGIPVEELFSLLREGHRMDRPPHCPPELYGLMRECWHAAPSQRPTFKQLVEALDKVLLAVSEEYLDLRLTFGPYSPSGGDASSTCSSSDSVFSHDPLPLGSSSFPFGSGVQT
Chain of FGFR4 (h) (P22455 22-802): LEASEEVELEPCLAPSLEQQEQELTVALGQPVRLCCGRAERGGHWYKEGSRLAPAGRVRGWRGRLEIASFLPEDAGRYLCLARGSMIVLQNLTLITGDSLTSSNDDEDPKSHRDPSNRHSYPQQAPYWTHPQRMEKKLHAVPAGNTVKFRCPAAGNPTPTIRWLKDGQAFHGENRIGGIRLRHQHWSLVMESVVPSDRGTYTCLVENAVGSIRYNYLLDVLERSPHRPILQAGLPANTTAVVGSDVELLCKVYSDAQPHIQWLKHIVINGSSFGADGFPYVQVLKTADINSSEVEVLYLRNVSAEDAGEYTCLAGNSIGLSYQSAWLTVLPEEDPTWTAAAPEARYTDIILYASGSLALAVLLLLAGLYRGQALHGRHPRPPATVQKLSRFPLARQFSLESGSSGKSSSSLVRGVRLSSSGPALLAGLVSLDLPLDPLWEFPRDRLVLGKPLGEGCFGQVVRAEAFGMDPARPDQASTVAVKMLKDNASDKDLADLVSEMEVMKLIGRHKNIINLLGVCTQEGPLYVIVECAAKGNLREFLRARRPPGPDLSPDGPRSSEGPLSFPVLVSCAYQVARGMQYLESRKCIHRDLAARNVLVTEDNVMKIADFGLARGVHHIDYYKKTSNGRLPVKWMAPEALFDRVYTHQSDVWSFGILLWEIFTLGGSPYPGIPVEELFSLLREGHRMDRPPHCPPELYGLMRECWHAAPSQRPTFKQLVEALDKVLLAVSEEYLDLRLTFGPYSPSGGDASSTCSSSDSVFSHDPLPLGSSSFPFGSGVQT

With `C#CCN(c1ccc2ncc(-c3cnn(C)c3)cc2c1)c1cc(OC)cc(OC)c1F`, the melting point came to 120 °C.

In the case of `COc1cc(OC)cc(N(CCCN2CCCC2=O)c2ccc3ncc(-c4cnn(C)c4)cc3c2)c1` (as salt: HCl) (hydrate or solvate) [Compound 10], the melting point was determined as 142 °C.

`COc1cc(OC)cc(N(CCNC(C)C)c2ccc3ncc(-c4cnn(CCO)c4)cc3c2)c1` (as salt: HCl) (hydrate or solvate) [Compound 13] came in with a melting point of 86 to 115 °C.

Take `COc1cc(OC)cc(C(CCNC(C)C)c2ccc3ncc(-c4cnn(C)c4)cc3c2)c1` (stereo not drawn) (as salt: HCl) [Compound 41]: the melting point is more than 300 °C.

For `CNCCN(c1ccc2ncc(-c3cnn(C)c3)cc2c1)c1c(F)c(OC)cc(OC)c1F` (as salt: HCl) [Compound 43], the melting point amounted to 180 °C.

`COc1cc(OC)cc(/C(=C/C#N)c2ccc3ncc(-c4cnn(C)c4)cc3c2)c1` [Compound 29] came in with a melting point of 86 °C. For the same compound, at FGFR3 (h), the IC50 was 4.57e-08 M. Further, in series [1], the “BAF3-FGFR1 (MIN IL3 pIC50)” value is recorded as 5.45. At KDR (h), the IC50 was 5.62e-07 M. In series [2], the “BAF3-KDR (MIN IL3 Alamar Blue pIC50)” value came out at 5.15. Further, on FGFR2 (h), the IC50 is approximately 6.76e-08 M. Moreover, the “BAF3-FGFR 4 (pIC50)” value in series [3] was less than 5. Also, in [4], the “BAF3-FGFR3 (MIN IL3 Alamar Blue- pIC50)” value is on record as 5.29.

`COc1cc(OC)cc(C(CCO)c2ccc3ncc(-c4cnn(C)c4)cc3c2)c1` (stereo not drawn) [Compound 34] registered a melting point of 131 °C. Further, the IC50 at FGFR3 (h) was 2.14e-08 M. The “BAF3-FGFR1 (MIN IL3 pIC50)” value in series [1] is recorded as 5.01. The IC50 at KDR (h) is more than 1e-06 M. In addition, the “BAF3-KDR (MIN IL3 Alamar Blue pIC50)” value in series [2] is listed as less than 5. Moreover, the IC50 in series [5] is more than 10 µM. In addition, on FGFR2 (h), the IC50 is 1.86e-07 M. In addition, the “BAF3-FGFR 4 (pIC50)” value in series [3] is given as less than 5. The same compound gave an IC50 against FGFR4 (h) of 4.17e-07 M. Also, in series [4], the “BAF3-FGFR3 (MIN IL3 Alamar Blue- pIC50)” value is reported as 5.16. The IC50 in series [6] was more than 10 µM.

Regarding `COc1cc(OC)cc(C(CC#N)c2ccc3ncc(-c4cnn(C)c4)cc3c2)c1` (stereo not drawn) [Compound 39], the melting point was 172 °C. The IC50 at FGFR3 (h) is 1.78e-07 M. Further, the “BAF3-FGFR1 (MIN IL3 pIC50)” value in series [1] is 5.09. Besides, the IC50 at KDR (h) was more than 1e-06 M. Besides, the “BAF3-KDR (MIN IL3 Alamar Blue pIC50)” value in series [2] was less than 5. Moreover, the IC50 in series [5] was more than 10 µM. Also, on FGFR2 (h), the IC50 was 2.82e-07 M. In addition, the “BAF3-FGFR 4 (pIC50)” value in series [3] was less than 5. Besides, the IC50 at FGFR4 (h) was more than 1e-06 M. Besides, the “BAF3-FGFR3 (MIN IL3 Alamar Blue- pIC50)” value in series [4] is recorded as less than 5. In addition, in series [6], the IC50 was more than 10 µM.

With `COc1cc(OC)cc(C(CC(N)=O)c2ccc3ncc(-c4cnn(C)c4)cc3c2)c1` (stereo not drawn) [Compound 40], the IC50 is 2.19e-07 M at FGFR3 (h); more than 1e-06 M at KDR (h); more than 10 µM in series [5]; 3.02e-07 M at FGFR2 (h); 1.86e-07 M on FGFR1 (h); more than 10 µM in series [6]. For the same compound, the “BAF3-FGFR1 (MIN IL3 pIC50)” value in [1] is less than 5. In [2], the “BAF3-KDR (MIN IL3 Alamar Blue pIC50)” value is less than 5. Besides, the “BAF3-FGFR 4 (pIC50)” value in series [3] is less than 5. For the same compound, the “BAF3-FGFR3 (MIN IL3 Alamar Blue- pIC50)” value in [4] was found to be 5.08.

Turning to `COc1cc(OC)cc(N(Cc2ncc[nH]2)c2ccc3ncc(C4CCNCC4)cc3c2)c1` [Compound 48a], the IC50 at FGFR3 (h) is 4.17e-07 M; at KDR (h), more than 1e-06 M; in series [5], more than 10 µM; at FGFR2 (h), 1.7e-07 M; against FGFR1 (h), 2.95e-07 M; at FGFR4 (h), 8.32e-07 M. Besides, the IC50 in series [6] is more than 10 µM. Further, the “BAF3-FGFR1 (MIN IL3 pIC50)” value in series [1] is listed as less than 5. In addition, in series [2], the “BAF3-KDR (MIN IL3 Alamar Blue pIC50)” value is less than 5. For the same compound, in [3], the “BAF3-FGFR 4 (pIC50)” value is listed as less than 5. In addition, in series [4], the “BAF3-FGFR3 (MIN IL3 Alamar Blue- pIC50)” value is given as less than 5.

Turning to `COc1cc(OC)cc(N(CCNC(C)C)c2ccc3ncc(-c4ccccc4)cc3c2)c1` [Compound 51], the IC50 on FGFR3 (h) is 7.94e-09 M; on KDR (h) it was 1.7e-07 M; in series [5], approximately 6.03 µM; at FGFR2 (h), 3.98e-09 M; on FGFR1 (h), 2.75e-09 M; on FGFR4 (h), 1.38e-08 M. The IC50 in series [6] was more than 10 µM. Further, the “BAF3-FGFR1 (MIN IL3 pIC50)” value in series [1] came to 6.13. Also, the “BAF3-KDR (MIN IL3 Alamar Blue pIC50)” value in [2] was determined as 5.15. In [3], the “BAF3-FGFR 4 (pIC50)” value stood at 5.87. The “BAF3-FGFR3 (MIN IL3 Alamar Blue- pIC50)” value in series [4] is 5.82.

For `COc1cc(OC)cc(N(CCO)c2ccc3ncc(N4CCOCC4)cc3c2)c1` [Compound 54], the IC50 on FGFR3 (h) was 1.45e-07 M; on KDR (h), more than 1e-06 M; in series [5], more than 10 µM; at FGFR2 (h), 1.82e-07 M; against FGFR1 (h) it was 3.8e-07 M; against FGFR4 (h), more than 1e-06 M. Besides, the IC50 in [6] was more than 10 µM. Besides, the “BAF3-FGFR1 (MIN IL3 pIC50)” value in series [1] is listed as less than 5. Also, in series [2], the “BAF3-KDR (MIN IL3 Alamar Blue pIC50)” value was less than 5. In addition, the “BAF3-FGFR 4 (pIC50)” value in series [3] was less than 5. The “BAF3-FGFR3 (MIN IL3 Alamar Blue- pIC50)” value in series [4] was 5.16.
